# Reference: patent publication US7267975B2, “Methods and compositions relating to insect repellents from a novel endophytic fungus” (Montana State University, priority 2002, dated 2007)
# Tested on: adult wheat stem sawflies (C. cinctus)
# Experiment: Y-tube olfactometry insect repellency test
# Format: in vivo
# Conditions: for Ratio: preference of insect to non-naphthalene side (control) of Y-tube vs. naphthalene source side of tube: control acetone on paper disk, 30 insects
# Experimental: FIG. 1. A highly schematic drawing of the olfactory Y-tube used to measure insect behavior in the presence of various naphthalene sources. A 6.3 volt light source is placed at the base of the Y-tube as illustrated in the drawing.
# In controlled, replicated experiments, both authentic naphthalene as well as M. vitigenus, were used as odor sources in Y-tube olfactometry tests (FIG. 1). […] Thirty successful trials using naphthalene test solution A (with a naphthalene release rate of 12 ng hr^−1) were completed (Table 1). Out of 30 insects, 24 responded by moving away from the naphthalene source. A second set of 30 successful trials were completed using naphthalene test solution B. Out of 30 insects, 21 were repelled by the naphthalene source. Finally, sixty successful trials were preformed using 0.0785 cm^2 fungal plugs (2-3 weeks old) of M. vitigenus as the odor source. Out of the 60 insects, 49 traveled away from the fungus and its volatiles. The results of both test concentrations of authentic naphthalene were statistically different from the acetone control test papers (Table 1). Insect behaviour in tests involving agar plugs containing M. vitigenus was also statistically different (a=0.001) from the controls (Table 1). […] Table 1. Influence of authentic naphthalene and M. vitigenus volatiles, containing mostly naphthalene, on the behavior of adult wheat stem sawflies (C. cinctus). Bioassay tests were conducted in Y-olfactory tubes.
structure (smiles),measurement,setting,value
"c1ccc2ccccc2c1 [Authentic naphthalene, naphthalene]",Insect behaviour (orientation) in the presence of the odor source,"many of the insects tested, Y-tube",more disoriented than usual
same,Number of insects moving away from the naphthalene source,"out of 30 insects, naphthalene test solution A (release rate 12 ng hr^-1)",24
same,Number of insects repelled by the naphthalene source,"out of 30 insects, naphthalene test solution B",21
same,Ratio: preference of insect to non-naphthalene side (control) of Y-tube vs. naphthalene source side of tube,"test concentration (A), naphthalene release rate 12 ng hr^-1",24/6
same,Ratio: preference of insect to non-naphthalene side (control) of Y-tube vs. naphthalene source side of tube,test concentration (B),21/9
